The series is described as follows: recombinant barcode read abundance after kanamycin selection (control-corrected) (log10(CPM+1)); higher = more efficient recombination; sequences stand for … in AGTGCAGAGAAAATCGGCCAGTTTTCTCTGCCTGCAGTCCGCATGCCGT…AGATTTATGCAGCGGACTGCCTTTCTCCCAAAGTGATAAACCGGACAGTATCATGGACCGGTTTTCCCGGTAATCCGTATTTGCAAGGTTGGTTTCACT; site = the 11-nt target. In a few lines:
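A vector carrying a T7-inducible recombinase and the last 73 bp of the bridge RNA received, by Gibson cloning, oligos encoding a promoter, target, barcode and the first 104 bridge RNA bases under J23119. The pooled constructs entered E. coli together with a donor plasmid by electroporation. Selection used chloramphenicol/ampicillin/kanamycin with 0.1 mM IPTG, with chloramphenicol/ampicillin LB agar as the control, each in two replicates. Recombination efficiency is the averaged, control-corrected counts-per-million of barcodes at recombinant junctions, reported as log10(CPM+1).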
For the sequence “AGCCACTCTTGGGTTCTAACCTGTTGCCT (site AGCCACTCTAG)”, the “recombinant barcode read abundance (log10)” value turned out to be 1.49. “AGCCAGGCTTGGGTTCTAACCTGTTGCGG (site AGCCAGGCTCC)”: the “recombinant barcode read abundance (log10)” value was found to be 1.76. As for “AGCCAGGCTTGGGTTCTAACCTGTTGCGG (site TCGTTTCCTAT)”, the “recombinant barcode read abundance (log10)” value came to 0.0575. “AGCCCTCCTTGGGTTCTAACCTGTTGCAG (site AGCCCTCCTCT)”: the “recombinant barcode read abundance (log10)” value was 1.86. The figure for “AGCCCTCCTTGGGTTCTAACCTGTTGCAG (site GAAATAACTAC)” is 0.114. As for “AGCCCTCCTTGGGTTCTAACCTGTTGCAT (site AGCCCTCCTAT)”, the “recombinant barcode read abundance (log10)” value came out at 1.41. The figure for “AGCCCTCCTTGGGTTCTAACCTGTTGCAT (site AGCGCTCCTAC)” is 0.0462; for “AGCCCTCCTTGGGTTCTAACCTGTTGCTA (site AGCCCTCCTAA)” it is 0.0446; for “AGCCCTCCTTGGGTTCTAACCTGTTGCTA (site AGCCCTCCTCA)” it is 0.449. Consider “AGCCCTCCTTGGGTTCTAACCTGTTGCTA (site AGCCCTCCTGA)”, for which the “recombinant barcode read abundance (log10)” value came to 0.222. Then “AGCCCTCCTTGGGTTCTAACCTGTTGCTA (site AGCCCTCCTTA)”, with 1.37. Then “AGCCCTCCTTGGGTTCTAACCTGTTGCTG (site AGCCCTCCTAA)”, with 0.0691. The figure for “AGCCCTCCTTGGGTTCTAACCTGTTGCTG (site AGCCCTCCTCA)” is 1.49; for “AGCCCTCCTTGGGTTCTAACCTGTTGCTG (site AGCCCTCCTGA)” it is 0.109. Regarding “AGCCCTCCTTGGGTTCTAACCTGTTGCTG (site AGCCCTCCTTA)”, the “recombinant barcode read abundance (log10)” value came to 0.0866. Then “AGCCGAACTTGGGTTCTAACCTGTTGCCT (site AGCCGAACTAG)”, with 0.832.

Regarding “AGCCGAACTTGGGTTCTAACCTGTTGCCT (site CGCCGAACTAG)”, the “recombinant barcode read abundance (log10)” value is 0.11. Regarding “AGCCGAACTTGGGTTCTAACCTGTTGCCT (site GGCCGAACTAG)”, the “recombinant barcode read abundance (log10)” value was 0.478.

For the sequence “AGCCGAACTTGGGTTCTAACCTGTTGCCT (site TGCCGAACTAG)”, the “recombinant barcode read abundance (log10)” value was 0.0692. Then “AGCCTATCTTGGGTTCTAACCTGTTGCCA (site AGCCTATCTTG)”, with 0.101.

“AGCCTATCTTGGGTTCTAACCTGTTGCCA (site CTAGCCGCTAA)”: the “recombinant barcode read abundance (log10)” value is 0.109. The figure for “AGCCTTACTTGGGTTCTAACCTGTTGCCT (site AACCTTACTAG)” is 0.106. The figure for “AGCCTTACTTGGGTTCTAACCTGTTGCCT (site ACCCTTACTAG)” is 0.275.

In the case of “AGCCTTACTTGGGTTCTAACCTGTTGCCT (site AGCCTTACTAG)”, the “recombinant barcode read abundance (log10)” value worked out at 0.171. The figure for “AGCCTTACTTGGGTTCTAACCTGTTGCCT (site ATCCTTACTAG)” is 0.122; for “AGCCTTGCTTGGGTTCTAACCTGTTGCCT (site AGCATTGCTAG)” it is 0.0195. For “AGCCTTGCTTGGGTTCTAACCTGTTGCCT (site AGCCTTGCTAG)”, the “recombinant barcode read abundance (log10)” value is 0.7.

For the sequence “AGCCTTGCTTGGGTTCTAACCTGTTGCCT (site AGCGTTGCTAG)”, the “recombinant barcode read abundance (log10)” value worked out at 0.566. On to “AGCCTTGCTTGGGTTCTAACCTGTTGCCT (site AGCTTTGCTAG)”, for which the “recombinant barcode read abundance (log10)” value turned out to be 0.167. Then “AGCGAAGCTTGGGTTCTAACCTGTTGCCT (site AGCGAAGCTAG)”, with 0.382. The figure for “AGCGAAGCTTGGGTTCTAACCTGTTGCCT (site AGCGAGGCTAG)” is 0.3; for “AGCGAATCTTGGGTTCTAACCTGTTGCCT (site AGAGAATCTAG)” it is 0.0521.

For the origin of these results see the supplement of paper PMC11208160.
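Note: IS621 recombinase and bridge RNA in Escherichia coli cells.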
